Measured values from patent US6627732B1, “Glutathione derivatives and their dosage forms” (Teijin Limited, priority 1998, dated 2003).

Key:
Stability in rat plasma = type: in vitro ADME; conditions: for Half life in rat plasma: heparinized plasma, diluted as needed with BSA/D-PBS, 250-323 μg/ml
Experimental: (§1) Rat, rabbit, and human plasma
(§2) Heparinized plasma: 30 to 40 parts
(rat plasma was diluted, as needed, with 30 mg-BSA/ml-D-PBS (pH 7.4) for use)

[1] = Stability in human plasma; type: in vitro ADME; conditions: heparinized plasma, 250-323 μg/ml
Excerpt: as §1, §2

[2] = Pharmacokinetics after intravenous administration to rabbits, 2-compartment model (Example 25); type: in vivo, rabbit; conditions: iv auricular vein 2 ml/kg, fat emulsion (Comparative Ex. 1: HPCD/glucose solution)
Excerpt: For the glutathione derivative of the present invention having a long-chain ester having 12 carbons or more and the glutathione derivatives of the conventional technology of Comparative Examples 1 and 2, kinetics in the blood were compared in rabbits that are a species having allow esterase activity in the blood.
(1) Male Japanese white rabbits, 12-week old or older, were purchased from Ichikawaya, and those rabbits that became 15-week old or older and whose body weight reached about 3 kg were used for the experiment. During the period up to the experiment, the animals were allowed free access to the animal feed and drinking water and were kept at a temperature of 24±2° C. and a humidity of 55±5%.
(2) The glutathione derivative having a long-chain ester of 12 carbons or more and the glutathione derivative of Comparative Example 2 were prepared at 20-200 mg/ml in a mixture of ethanol or ethanol:benzyl alcohol, which was mixed with the fat emulsion just prior to use, and was filtered with a 1.2 μm filter to obtain a liquid for intravenous administration. On the other hand, the glutathione derivative of Comparative Example 1 was dissolved in an aqueous solution of 6%-hydroxypropyl-β-cyclodextrin/5%-glucose at 15 mg/ml to obtain an administration liquid.
(3) The administration liquid of the glutathione derivative obtained in (2) at a dose of 2 ml/kg was rapidly infused into the left auricular vein of the rabbits under no anesthesia and under restraint at a rate of 1 ml/min. Each glutathione derivative was given to three or more rabbits. At 5, 10, 15, 30, 60, 120, and 240 minutes after the completion of the administration, 1 ml of the blood was drawn from the right auricular vein in the presence of heparin, which was immediately cooled on ice. Plasma was obtained by centrifuging the blood, 1-2 volume parts of acetonitrile was added to deproteinize the supernatant, which was filtered by a 0.5 μm filter. The supernatant of the filtrate was quantitated by HPLC.

swine liver esterase = assay: Decomposition of glutathione derivatives by swine liver esterase (physiological stability); type: in vitro ADME; conditions: BSA/D-PBS pH 7.4, 196-244 μg/ml
Experimental: (1) Bovine serum albumin (hereinafter referred to as BSA), Dulbecco's phosphate buffered saline (hereinafter referred to as D-PBS), swine liver esterase, and rabbit liver esterase were purchased from Sigma, 6-week old male SD rats were purchased from Nippon SLC, and 12-week old or older male Japanese white rabbits were purchased from Ichikawaya. On the day of the incubation experiment described below, blood was drawn from the animals in the presence of heparin, and plasma was separated therefrom for use. Human plasma was obtained from normal healthy males after obtaining their consent.
(2) The glutathione derivatives described in the Examples and Comparative Examples of the present invention were incubated for a fixed time in an enzyme solution having the following composition. Acetonitrile was added to the reaction mixture to inactivate the enzyme thereby to stop the reaction. The concentration of the glutathione derivatives in the deproteinized supernatant was measured by HPLC. For each time point of the esterase enzyme experiment, the mean values from two measurement or more were determined, and for the rats and rabbits the mean values of plasma samples from three individuals were determined. For some of the experiment data, changes with time of percentages relative to initial concentration of the glutathione derivative are shown in FIGS. 2 to 4.
Swine liver esterase and rabbit liver esterase experiment
30 mg-BSA/ml-D-PBS (pH 7.4): 36 to 45 parts
Swine or rabbit liver esterase/D-PBS: 4-5 parts
10 mg-glutathione derivative/ml-ethanol: one part (the final concentration in the reaction mixture is 196-244 μg/ml)

Row | Structure (SMILES) | Half life in rat plasma (Stability in rat plasma) [h] | Half life in human plasma [1] [h] | Clearance per body weight [2] [L/h/kg] | Distribution volume per body weight of the central compartment [2] [L/kg] | Decomposition rate constant by swine liver esterase (swine liver esterase) | Stability in biological sample solutions such as rat blood (Stability in rat plasma) | Half life in the plasma of experimental animals (Stability in rat plasma; mice and rats)
1 | CCCCCCCCOC(=O)[C@H](NC(=O)[C@H](CSCc1ccccc1)NC(=O)CC[C@H](N)C(=O)OCC)c1ccccc1.Cl [Comparative Example 2, Glu(Cys(Bzl)-D-Phg-O(Octyl))-O(Et)hydrochloride, reference compound] | 0.0035 | 10.3 | 9.34 | 4.18 | 364 10^−4/unit/min |  | 
2 | CCOC(=O)[C@@H](N)CCC(=O)N[C@@H](CSCc1ccccc1)C(=O)N[C@@H](C(=O)OCC)c1ccccc1.Cl [Comparative Example 1, Glu(Cys(Bzl)-D-Phg-O(Et))-O(Et)hydrochloride, reference compound] | 0.00217 | 10.7 | 15.27 | 0.80 | 121 10^−4/unit/min | very unstable | extremely short half life
3 | CCCCCCCCCCCCCCCCOC(=O)[C@@H](N)CCC(=O)N[C@@H](CSCc1ccccc1)C(=O)N[C@@H](C(=O)OCC)c1ccccc1.Cl [Example 4, Glu(Cys(Bzl)-D-Phg-OEt)-O(Hexadecyl)hydrochloride] | 2.57 | 184.77 | 0.20 | 0.06 | 0.466 10^−4/unit/min |  | 
